Experimental findings from PMC5663395, “Chemical Validation of Methionyl-tRNA Synthetase as a Druggable Target in Leishmania donovani” (ACS Infectious Diseases, 2017) are described below.

The term Vd denotes a proportionality between amount in the body and measured concentration, not a real space. A low value points to little distribution into tissue. As usually defined, the EC50 is the midpoint of the concentration-response curve.

Like-named read-outs stand apart in the source and are kept apart here.

A short description of one data set: in vivo. The note with it: female, Balb/c, mouse, iv.
The nature of data set [1]: LogD measurement (Sirius T3, potentiometric). It is filed as physicochemical. The note with it: octanol/water. How it is done:
(§1) calculated, both in terms of pEC50 values. MIC (minimum inhibitory concentration) values are defined as the lowest concentration tested at which maximal inhibition is reached.
THP-1 cells were differentiated in 96-well plates with PMA as described above. Following differentiation the cells were treated for 30 min with dose-response curves of test compounds in presence of 100 nM LysoTracker Red DND-99 (Thermo Fisher) and 5 µg/ml Hoechst 33342. Next cells were washed 3 times with Hanks Buffered Saline Solution (Gibco) and imaged on a Perkin Elmer Operetta system. An image analysis algorithm to measure mean Lysotracker Red DND-99 intensity per cell was developed in Columbus. […]
To measure the pKa of DDD806905, a fast UV-metric method was performed using a Sirius T3 instrument (Sirius Analytical, U.K.). The calculation of the pKa was determined using the Sirius T3 refine software (Sirius Analytical, U.K.). In brief, the UV-metric pKa method is based on measuring pH during an acid-base titration and monitoring UV absorbance shift. […] The appearance of precipitate was monitored throughout the experiment by a turbidity sensing device. […] The pKas of DDD806905 was determined at the pH where there was maximal change in UV absorbance with respect to pH. […]
LogD7.4 values were quantified using a Sirius T3 instrument (Sirius Analytical, U.K.). […]
which gave the best fit to the data was then recorded as the logP. […]

Another data set has as its system THP-1 lysosomes. The data set can be described thus: Lysosomotropism assay (LysoTracker Red competition). It is filed as cell-based, human. The following applies: PMA-differentiated THP-1 cells, 30 min. How it is done: as §1
THP-1 cells were differentiated in 96-well plates with PMA as described above. Following differentiation the cells were treated for 30 min with dose-response curves of test compounds in presence of 100 nM LysoTracker Red DND-99 (Thermo Fisher) and 5 µg/ml Hoechst 33342. Next cells were washed 3 times with Hanks Buffered Saline Solution (Gibco) and imaged on a Perkin Elmer Operetta system. An image analysis algorithm to measure mean Lysotracker Red DND-99 intensity per cell was developed in Columbus. Mean Intensity was normalised using a no dye control (100% effect) and DMSO treated wells stained with Lysotracker Red DND-99 (0% effect control). Dose-response curves were fitted for the test compounds using a four-parameter equation (equation 5 above) and constrained to 0 and 100% where necessary.
To measure the pKa of DDD806905, a fast UV-metric method was performed using a Sirius T3 instrument (Sirius Analytical, U.K.). The calculation of the pKa was determined using the Sirius T3 refine software (Sirius Analytical, U.K.). In brief, the UV-metric pKa method is based on measuring pH during an acid-base titration and monitoring UV absorbance shift. The ionisation curve (Bjerrum curve) was then used to determine the pH where exactly 50 % of neutral and 50 % of ionised species was present. DDD806905 must be fully dissolved throughout the titration and so the titration is set to start at the pH where DDD806905 is in its fully ionised state. The appearance of precipitate was monitored throughout the experiment by a turbidity sensing device. […] The pKas of DDD806905 was determined at the pH where there was maximal change in UV absorbance with respect to pH. […]
LogD7.4 values were quantified using a Sirius T3 instrument (Sirius Analytical, U.K.). […] The instrument software calculated the pH of each data point using mass and charge balance equations and then fitted this theoretical data to the experimental data. […]

Data set [2] can be described thus: THP-1 cytotoxicity readout of intramacrophage assay. The note with it: human, Leishmania infected, PMA-differentiated THP-1 cells; read-out: THP-1 EC50 (toxicity). In kind it is cell-based. The method, then: carried out as described above using 5%, 10% and 20% FBS in the media. To examine the effect of the methionine concentration on the potency of DDD806905 parasites were grown in the presence of drug and in the presence (or absence) of 20-fold excess methionine (0.3 g/l). IC50 curve fitting was undertaken in GraFit version 6.0 (Erithacus Software) using a four-parameter logistic dose-response curve (equation 6), with s the slope.
Leishmania Axenic Amastigote Assay
The Leishmania axenic amastigote assay was performed using the method published in Nühs et al 15.
Leishmania Intracellular Amastigote Assay
The intramacrophage Leishmania assay was performed using a modified version of the method described in De Rycker et al 16. […]
amphotericin B was included. Controls were as follows: columns 11 and 12: DMSO, columns 23 and 24: amphotericin B (final concentration 2 µM). 350 nl of compound was pre-dispensed into 384-well sterile intermediary plates. To the intermediary plates, 35 µl of THP-1 media was added and plates were shaken for >5 min to ensure complete mixing. […]
Amastigotes were incubated in the presence of THP-1 macrophages for 16 h. […] For each well, i) THP-1 cell count (cytotoxicity readout) and ii) average number of amastigotes per cell (potency readout) were […]

As to `Cl.Cl.O=c1nc(NCCCNCc2cc3c(Cl)cc(Cl)cc3[nH]2)[nH]c2ccccc12` [DDD806905, 2-((3-(((4,6-dichloro-1H-indol-2-yl)methyl)amino)propyl)amino)quinazolin-4(1H)-one dihydrochloride], in “in vivo”, the Vd was determined as 6 L/kg. Moreover, the logD amounted to 0.3 in data set [1] (pH 5.6, read-out: log D5.6) and 2.6 in data set [1] (pH 7.3, read-out: log D7.3). Moreover, the “competition with lysotracker red accumulation in THP-1 lysosomes” value with THP-1 lysosomes was “did compete with lysotracker red accumulation”. Further, the EC50 at 96 h in data set [2] was 10 µM.
